Measurements as given in PMC3625111 (Biochemical Pharmacology, 2013).
“Also recorded” adds a separate entry of the source. Where two headings read alike, the source gives them in different places.

What was measured:
SH-SY5Y cells = assay: Hsp20 phosphorylation assay (western blot, phospho-serine 16); assay type: cell-based; conditions: for Hsp20 phosphorylation (serine 16): rolipram 10 μM, moexipril, 7, 8 at 50 μM, 0.5, 1, 2 h
Procedure: Compounds were diluted in media and added to cells for 0.5, 1 and 2 h prior to harvesting using 3T3 lysis buffer (1% Triton X-100, 50 mM Hepes, pH 7.2, 10 mM EDTA and 100 mM NaH2PO4) supplemented with protease inhibitor Mini-Complete (Roche) and phosphatase inhibitor PHOS-stop (Roche, UK). Hsp20 expression was analysed using standard SDS-PAGE and Western Blotting techniques using the phospho-Hsp20 antibody (ab58522 Abcam, UK) and alpha-tubulin-HRP antibody (ab40742 Abcam, UK) as the loading control. Western blotting for PDE4s was undertaken using antibodies previously described by us.

[1] = parameters: method as in PMID 3508548, PMID 2999531; conditions: use in hypertension; cited from earlier work
[2] = parameters: method as in printed; conditions: oral dose of 15 mg, ref not given, cited from earlier work
[3] = Colloidal aggregation by dynamic light scattering; assay type: physicochemical
PDE4B2 = target: T1, PDE4B2 (Homo sapiens, UniProt Q07343); assay: PDE activity two-step radioassay, PDE4B2 lysate; assay type: biochemical; conditions: for IC50: PDE4B2 from transfected HEK293 lysate, cAMP hydrolysis, n = 3
T1 construct: expressed in transfected cells; host or cells: HEK293
T1 sequence (Q07343 1-564 isoform Q07343-2): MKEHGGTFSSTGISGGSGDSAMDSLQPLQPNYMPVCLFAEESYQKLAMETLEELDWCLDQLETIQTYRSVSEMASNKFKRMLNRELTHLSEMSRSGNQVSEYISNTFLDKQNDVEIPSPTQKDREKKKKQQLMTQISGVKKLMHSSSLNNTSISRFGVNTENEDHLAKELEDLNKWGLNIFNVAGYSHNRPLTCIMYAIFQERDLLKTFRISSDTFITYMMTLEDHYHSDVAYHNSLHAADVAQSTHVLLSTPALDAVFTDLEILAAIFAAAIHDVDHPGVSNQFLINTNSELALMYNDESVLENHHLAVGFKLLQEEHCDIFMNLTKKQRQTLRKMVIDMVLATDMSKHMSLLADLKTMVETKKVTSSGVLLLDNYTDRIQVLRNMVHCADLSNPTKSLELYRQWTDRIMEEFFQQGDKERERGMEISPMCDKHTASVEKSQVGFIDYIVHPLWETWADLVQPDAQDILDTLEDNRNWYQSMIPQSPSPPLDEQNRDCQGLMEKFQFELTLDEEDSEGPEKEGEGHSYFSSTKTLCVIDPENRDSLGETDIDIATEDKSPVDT
Procedure: (§1) Expression plasmids encoding human PDE4 were as previously described by us [[27,28]]. The plasmids were purified from Escherichia coli using the Maxi-prep system (Qiagen, UK). For transient transfections, HEK293 cells were seeded at a 1:3 ratio into culture flasks 24 h before transfection so that cells were ~60% confluent by the time of transfection. Transfections were carried out using PolyFect® transfection reagent (Qiagen, UK) in accordance with manufacturer's instructions.
(§2) Samples were then frozen on solid CO2, thawed and then manually homogenised, followed by passage through a 26-gauge needle several times to ensure complete cell lysis. Cells were centrifuged at 13,000 rpm for 10 min to remove any unbroken cells, and the resulting supernatant was frozen in solid CO2 and stored at −80 °C until required. For experimentation, the protein concentration of whole-cell lysate from transfected and mock-transfected (vector only) cells was equalised (typically to 1 μg/μl). Protein concentration was determined through Bradford Assay using bovine serum albumin as standard.
(§3) PDE activity was determined using a two-step radioassay procedure as described previously. Activities for each PDE subtype were related to a non-drug treated sample (100% control) over an increasing dose of the indicated compounds. IC50 values were calculated using.

[4] = system: SH-SY5Y cells stably expressing Epac1-camps; assay: FRET imaging of cAMP with Epac1-camps biosensor; assay type: cell-based; conditions: added after forskolin 5 μM
Procedure: HEK293 cells were maintained in DMEM containing 10% (v/v) FBS, 2 mM L-glutamine and 1% penicillin/streptomycin. SH-SY5Y cells were maintained in DMEM:F12 (1:1) containing 10% (v/v) FBS, 2 mM L-glutamine and 1% penicillin/streptomycin. For FRET analysis SH-SY5Y cells stably expressing Epac1-camps under G418 selection (500 μg/ml) were seeded onto 22 mm round glass coverslips and maintained in a 6 well plate 24 h prior to use.
FRET imaging experiments were performed on SH-SY5Y-Epac1-camps stables. Cells were maintained at room temperature in DPBS (Invitrogen, UK), with added CaCl2 and MgCl2, and imaged on an inverted microscope (Olympus IX71) with a PlanApoN, 60X, NA 1.42 oil, 0.17/FN 26.5, objective (Japan). The microscope was equipped with a CCD camera (cool SNAP HQ monochrome, Photometrics), and a beam-splitter optical device (Dual-channel simultaneous-imaging system, DV^2 mag biosystem (ET-04-EM)). Imaging acquisition and analysis software used was Meta imaging series 7.1, Metafluor, and processed using ImageJ (http://rsb.info.nih.gov/ij/). FRET changes were measured as changes in the background-subtracted 480/545-nm fluorescence emission intensity on excitation at 430 nm and expressed as either R/R0, where R is the ratio at time t and R0 is the ratio at time = 0 s, or ΔR/R0, where ΔR = R − R0. Values are expressed as the mean ± SEM.

porcine serum ACE = system: porcine serum ACE; parameters: method as in PMID 3508548, PMID 2999531; conditions: vs porcine serum ACE; cited from earlier work
[5] = cited from earlier work; for brain uptake: ref not given
PDE8A = target: T2, PDE8A (Homo sapiens, UniProt O60658); assay: PDE activity two-step radioassay, PDE8A lysate; assay type: biochemical; conditions: dose response, Fig. 3C
T2 construct: expressed in transfected cells; host or cells: HEK293
T2 sequence (O60658 whole entry, species assumed): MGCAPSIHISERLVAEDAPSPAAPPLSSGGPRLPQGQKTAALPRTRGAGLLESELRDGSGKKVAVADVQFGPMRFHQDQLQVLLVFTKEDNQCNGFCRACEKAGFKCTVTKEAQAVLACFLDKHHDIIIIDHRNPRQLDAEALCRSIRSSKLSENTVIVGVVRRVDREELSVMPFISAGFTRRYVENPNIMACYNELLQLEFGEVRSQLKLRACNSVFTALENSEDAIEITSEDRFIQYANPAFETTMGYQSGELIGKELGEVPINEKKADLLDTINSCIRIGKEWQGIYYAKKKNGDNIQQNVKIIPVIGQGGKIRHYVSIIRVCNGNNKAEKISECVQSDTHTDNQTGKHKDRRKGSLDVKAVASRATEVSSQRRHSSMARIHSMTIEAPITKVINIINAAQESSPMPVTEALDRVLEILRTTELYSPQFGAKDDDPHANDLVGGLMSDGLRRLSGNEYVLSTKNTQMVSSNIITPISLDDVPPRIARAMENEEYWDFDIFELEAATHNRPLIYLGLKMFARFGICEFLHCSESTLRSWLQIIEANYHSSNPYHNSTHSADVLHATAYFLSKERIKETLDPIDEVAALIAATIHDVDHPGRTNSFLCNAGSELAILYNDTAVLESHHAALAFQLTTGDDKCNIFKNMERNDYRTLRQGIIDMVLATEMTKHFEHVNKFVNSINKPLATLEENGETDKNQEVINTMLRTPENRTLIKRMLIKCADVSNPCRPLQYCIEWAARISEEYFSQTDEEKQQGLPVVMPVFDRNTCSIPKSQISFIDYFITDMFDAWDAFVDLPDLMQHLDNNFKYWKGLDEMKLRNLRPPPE
Procedure: as §2, with “Cells (~90–100% confluent) were transfected for 48 h with cDNA encoding PDE4B2, PDE4A5, PDE4D5, PDE8A and PDE5, washed with PBS and harvested by using a cell scraper in KHEM buffer (50 mM KCl, 50 mM HEPES; pH 7.2, 10 mM EGTA, 1.92 mM MgCl2, 1 mM dithiothreitol (DTT)) supplemented with protease inhibitor Mini-Complete (Roche, UK). Samples” for “Samples”
as §3, with “using. In all cases, the transfected PDE accounted for over 97% of the total PDE activity when compared with the untransfected control lysates.” for “using.”

beta-lactamase = beta-lactamase (Escherichia coli, UniProt P00811); assay: beta-lactamase inhibition (aggregation counter-screen); assay type: biochemical; conditions: at 10 or 100 μM
beta-lactamase, sequence (P00811 20-377): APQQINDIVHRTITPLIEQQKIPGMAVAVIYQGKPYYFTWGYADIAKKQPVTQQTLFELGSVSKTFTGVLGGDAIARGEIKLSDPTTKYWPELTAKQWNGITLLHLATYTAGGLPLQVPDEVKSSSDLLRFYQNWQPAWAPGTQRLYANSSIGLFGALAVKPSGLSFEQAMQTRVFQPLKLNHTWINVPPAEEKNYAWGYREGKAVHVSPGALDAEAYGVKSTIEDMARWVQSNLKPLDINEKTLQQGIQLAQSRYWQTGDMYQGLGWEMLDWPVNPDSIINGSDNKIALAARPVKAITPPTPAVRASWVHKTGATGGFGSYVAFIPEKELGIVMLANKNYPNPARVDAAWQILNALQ

PDE5 = target: T3, PDE5 (Homo sapiens, UniProt O76074); assay: PDE activity two-step radioassay, PDE5 lysate; assay type: biochemical; conditions: dose response, Fig. 3C
T3 construct: expressed in transfected cells; host or cells: HEK293
Procedure: as §2, with “Cells (~90–100% confluent) were transfected for 48 h with cDNA encoding PDE4B2, PDE4A5, PDE4D5, PDE8A and PDE5, washed with PBS and harvested by using a cell scraper in KHEM buffer (50 mM KCl, 50 mM HEPES; pH 7.2, 10 mM EGTA, 1.92 mM MgCl2, 1 mM dithiothreitol (DTT)) supplemented with protease inhibitor Mini-Complete (Roche, UK). Samples” for “Samples”
as §3, with “using. In all cases, the transfected PDE accounted for over 97% of the total PDE activity when compared with the untransfected control lysates.” for “using.”

PDE4D5 = target: T4, PDE4D5 (Homo sapiens, UniProt Q08499); assay: PDE activity two-step radioassay, PDE4D5 lysate; assay type: biochemical
T4 construct: expressed in transfected cells; host or cells: HEK293
T4 sequence (Q08499 1-745 isoform Q08499-6): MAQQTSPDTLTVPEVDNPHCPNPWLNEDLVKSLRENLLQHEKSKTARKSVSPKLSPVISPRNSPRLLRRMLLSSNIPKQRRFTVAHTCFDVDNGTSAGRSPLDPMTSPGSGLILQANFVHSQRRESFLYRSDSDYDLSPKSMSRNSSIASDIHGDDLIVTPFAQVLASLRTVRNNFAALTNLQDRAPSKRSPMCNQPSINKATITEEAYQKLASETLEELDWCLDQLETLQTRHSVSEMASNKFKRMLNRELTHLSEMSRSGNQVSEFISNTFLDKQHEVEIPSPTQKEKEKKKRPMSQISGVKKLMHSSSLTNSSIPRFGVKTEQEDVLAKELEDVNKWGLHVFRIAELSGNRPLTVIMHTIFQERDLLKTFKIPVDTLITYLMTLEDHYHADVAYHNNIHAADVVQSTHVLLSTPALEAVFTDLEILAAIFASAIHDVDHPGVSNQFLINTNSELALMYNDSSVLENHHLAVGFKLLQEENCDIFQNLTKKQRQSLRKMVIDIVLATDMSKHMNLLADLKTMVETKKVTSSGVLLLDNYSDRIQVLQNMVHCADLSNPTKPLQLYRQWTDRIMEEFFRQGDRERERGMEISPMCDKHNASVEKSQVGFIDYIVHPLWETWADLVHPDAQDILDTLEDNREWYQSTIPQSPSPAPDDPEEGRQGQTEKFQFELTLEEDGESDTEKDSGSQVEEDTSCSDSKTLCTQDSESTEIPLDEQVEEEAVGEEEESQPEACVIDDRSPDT
Procedure: as §1
Cells (~90–100% confluent) were transfected for 48 h with cDNA encoding PDE4B2, PDE4A5, PDE4D5, PDE8A and PDE5, washed with PBS and harvested by using a cell scraper in KHEM buffer (50 mM KCl, 50 mM HEPES; pH 7.2, 10 mM EGTA, 1.92 mM MgCl2, 1 mM dithiothreitol (DTT)) supplemented with protease inhibitor Mini-Complete (Roche, UK). Samples were then frozen on solid CO2, thawed and then manually homogenised, followed by passage through a 26-gauge needle several times to ensure complete cell lysis. Cells were centrifuged at 13,000 rpm for 10 min to remove any unbroken cells, and the resulting supernatant was frozen in solid CO2 and stored at −80 °C until required. […] Protein concentration was determined through Bradford Assay using bovine serum albumin as standard.
PDE activity was determined using a two-step radioassay procedure as described previously. […] IC50 values were calculated using. […]

For `COc1ccc(C2CNC(=O)C2)cc1OC1CCCC1` (stereo not shown) [rolipram], the “Hsp20 phosphorylation (serine 16)” value (SH-SY5Y cells) was “significantly increased”.
For `CCOC(=O)[C@H](CCc1ccccc1)N[C@@H](C)C(=O)N1Cc2cc(OC)c(OC)cc2C[C@H]1C(=O)O` [moexipril], the emetogenic activity [1] is listed as “apparently lacking emetogenic activity”, the Cmax ([2]; conversion of 25 μg/L, read-out: Cmax) is listed as roughly 0.05 µM and the Cmax ([2]; one PK assessment) is listed as 0.025 µg/mL. For the same compound, the colloidal aggregation [3] was “no particles were observed”, the IC50 (PDE4B2) was 38 µM and the “cellular cAMP increase (FRET ratio change) over forskolin alone” value [4] was “markedly potentiated; also recorded: significantly enhance”. For the same compound, the IC50 (porcine serum ACE) was 0.04 µM, the “Hsp20 phosphorylation (serine 16)” value (SH-SY5Y cells) was “significantly increased” and the brain uptake [5] was “poor uptake by the brain”. The “activity against PDE8A” value (PDE8A) was “no activity”, the inhibition of beta-lactamase (beta-lactamase) was “did not inhibit” and the “activity against PDE5” value (PDE5) was “no activity”. For the same compound, the IC50 (PDE4D5; PDE4D5, n = 3) was 230 µM and the “fold lower sensitivity to inhibition than PDE4B2” value (PDE4D5; PDE4D5 vs PDE4B2) was 6 fold.
In the case of `COc1cc2c(cc1OC)CN(C(=O)[C@H](C)N[C@@H](CCc1ccccc1)C(=O)O)[C@H](C(=O)O)C2` [moexiprilat], the brain uptake [5] is given as “poor uptake by the brain”.
For `COc1cc2c(cc1OC)CN(C(=O)Cn1cnc3ccccc3c1=O)[C@H](C(=O)O)C2` (racemic) [Compound 7], the IC50 (PDE4B2) was 89 µM, the “cellular cAMP increase (FRET ratio change) over forskolin alone” value [4] was “significantly enhanced” and the “Hsp20 phosphorylation (serine 16)” value (SH-SY5Y cells) was “induced Hsp20 phosphorylation”.
In the case of `COc1ccc([C@]2(C#N)CC[C@@H](C(=O)O)CC2)cc1OC1CCCC1` [cilomilast], the brain penetration [5] is given as “limited”.
For `CCCCCCOC(=O)[C@]1(O)C[C@@H]2O[C@@]1(C)n1c3ccccc3c3c4c(c5c6ccccc6n2c5c31)C(=O)NC4` [KT5720], the “effect on Hsp20 phosphorylation induced by moexipril and forskolin” value (SH-SY5Y cells; KT5720 4 μM 20 min before forskolin 10 μM with moexipril 50 μM, 5 min) was “attenuate”.
For `COc1cc2c(cc1OC)CN(C(=O)CCc1c[nH]c3ccccc13)[C@H](C(=O)O)C2` (racemic) [Compound 8], the “fold better IC50 than moexipril” value (PDE4B2; PDE4B2) was 7 fold, the IC50 (PDE4B2) was 6.9 µM and the “cellular cAMP increase (FRET ratio change) over forskolin alone” value [4] was “significantly enhanced”. The “Hsp20 phosphorylation (serine 16)” value (SH-SY5Y cells) was “induced Hsp20 phosphorylation”.
